For test [1], the system named is c-myc in Human AML MV4-11 cells. The test is described as follows: Inhibition of cMYC expression (mRNA, real-time PCR) in MV4-11 cells. It is filed as cell-based. Particulars: 3 h treatment, cMYC mRNA by real-time PCR. As to the method: MV4-11 cells (CRL-9591) were plated at a density of 2.5×10^4 cells per well in 96 well U-bottom plates and treated with increasing concentrations of test compound or DMSO (0.1%) in IMDM media containing 10% FBS and penicillin/streptomycin, and incubated for 3 h at 37′C. Triplicate wells were used for each concentration. Cells were pelleted by centrifugation and harvested using the mRNA Catcher PLUS kit according to manufacturer's instructions. The eluted mRNA isolated was then used in a one-step quantitative real-time PCR reaction, using components of the RNA UltraSense™ One-Step Kit (Life Technologies) together with Applied Biosystems TaqMan® primer-probes for cMYC and Cyclophilin. Real-time PCR plates were run on a ViiA™7 real time PCR machine (Applied Biosystems), data was analyzed, normalizing the Ct values for cMYC to an internal control, prior to determining the fold expression of each sample, relative to the control.
A general note: In qPCR the cycle at which signal appears reflects the starting amount.

The next test deals with Human AML MV-4-11 cells. The test is described as follows: Inhibition of cell proliferation in MV4-11 cells (CellTiter Aqueous One). It is filed as cell-based. To be noted: for IC50: MV4-11, 72 h; for Cell Proliferation activity: 72 h. As to the method:
MV4-11 cells (CRL-9591) were plated at a density of 5×10^4 cells per well in 96 well flat bottom plates and treated with increasing concentrations of test compound or DMSO (0.1%) in IMDM media containing 10% FBS and penicillin/streptomycin. Triplicate wells were used for each concentration and a well containing only media was used as a control. Plates were incubated at 37° C., 5% CO2 for 72 h before adding 20 µL of the CellTiter Aqueous One Solution (Promega) to each well and incubated at 37° C., 5% CO2 for an additional 3-4 h. The absorbance was read at 490 nm in a spectrophotometer and the percentage of cell titer relative to DMSO-treated cells was calculated after correcting for background by subtracting the blank well's signal. IC50 values were calculated using the GraphPad Prism software.

Another test has as its system hIL-6 mRNA. Put plainly: Inhibition of hIL-6 mRNA transcription in LPS-stimulated U937 macrophages. It is filed as cell-based, Human. Particulars: 1 h pretreatment, LPS 3 h; for IC50: Homo sapiens, U-937, PMA-differentiated U937 cells, read-out: IL-6 activity; for IL-6 activity: PMA-differentiated U937 cells. As to the method: Human leukemic monocyte lymphoma U937 cells (CRL-1593.2) were plated at a density of 3.2×10^4 cells per well in a 96-well plate in 100 μL RPMI-1640 containing 10% FBS and penicillin/streptomycin, and differentiated into macrophages for 3 days in 60 ng/mL PMA ([…]) at 37° C. in 5% CO2 prior to the addition of compound. The cells were pretreated for 1 h with increasing concentrations of test compound in 0.1% DMSO prior to stimulation with 1 ug/mL lipopolysaccharide from Escherichia coli. Triplicate wells were used for each concentration. The cells were incubated at 37° C., 5% CO2 for 3 h before the cells were harvested. At time of harvest, media was removed and cells were rinsed in 200 μL PBS. Cells were harvested using the mRNA Catcher PLUS kit according to manufacturer's instructions. The eluted mRNA was then used in a one-step quantitative real-time PCR reaction using components of the RNA UltraSense™ One-Step Kit (Life Technologies) together with Applied Biosystems TaqMan® primer-probes for hIL-6 and Cyclophilin. Real-time PCR plates were run on a ViiA™7 real time PCR machine (Applied Biosystems), data was analyzed, normalizing the Ct values for hlL-6 to an internal control, prior to determining the fold expression of each sample, relative to the control.

Test [2] has as its target Brd4 bromodomain 1 (BRD4(1)) (Homo sapiens, UniProt O60885). Put plainly: Inhibition of tetra-acetylated histone H4 binding to Brd4 bromodomain 1, measured by FRET (HTRF). Set-up: made in house; host or cells: E. coli BL21(DE3). To be noted: 2 h at room temperature. As to the method: Proteins were cloned and overexpressed with a N-terminal 6×His tag, then purified by nickel affinity followed by size exclusion chromatography. Briefly, E. coli BL21(DE3) cells were transformed with a recombinant expression vector encoding N-terminally Nickel affinity tagged bromodomains from Brd2, Brd3, Brd4. Cell cultures were incubated at 37° C. with shaking to the appropriate density and induced overnight with IPTG. The supernatant of lysed cells was loaded onto Ni-IDA column for purification. Eluted protein was pooled, concentrated and further purified by size exclusion chromatography. Fractions representing monomeric protein were pooled, concentrated, aliquoted, and frozen at −80° C. for use in subsequent experiments.
Binding of tetra-acetylated histone H4 and BET bromodomains was confirmed by a Homogenous Time Resolved Fluorescence Resonance Energy Transfer (HTRF®) method. N-terminally His-tagged bromodomains (200 nM) and biotinylated tetra-acetylated histone H4 peptide (25-50 nM, Millipore) were incubated in the presence of Europium Cryptate-labeled streptavidin (Cisbio Cat. #610SAKLB) and XL665-labeled monoclonal anti-His antibody (Cisbio Cat. #61HISXLB) in a white 96 well microtiter plate (Greiner). For inhibition assays, serially diluted test compound was added to these reactions in a 0.2% final concentration of DMSO. Duplicate wells were used for each concentration tested. Final buffer concentrations were 30 mM HEPES pH 7.4, 30 mM NaCl, 0.3 mM CHAPS, 20 mM phosphate pH 7.0, 320 mM KF, 0.08% BSA. After a 2 h incubation at room temperature, fluorescence was measured at 665 and 620 nm with a SynergyH4 plate reader (Biotek). The binding inhibitory activity was shown by a decrease in 665 nm relative to 620 nm fluorescence. IC50 values were determined from a dose response curve.

Turning to `Cc1noc(C)c1-c1cc(-c2c(C)noc2C)c2nn(C)cc2c1` [Example Compound 55, 4,4′-(2-methyl-2H-indazole-5,7-diyl)bis(3,5-dimethylisoxazole)], the IC50 in test [1] is 300 to 3000 nM; in the test with Human AML MV-4-11 cells, 300 to 3000 nM; with hIL-6 mRNA, 300 to 3000 nM; in test [2], no more than 300 nM.
With `Cc1ccc(C#N)cc1-c1cc(-c2c(C)noc2C)cc2[nH]c(N3CCCC3)nc12` [Example Compound 215, 3-(6-(3,5-dimethylisoxazol-4-yl)-2-(pyrrolidin-1-yl)-1H-benzo[d]imidazol-4-yl)-4-methylbenzonitrile], the IC50 in test [1] is no more than 300 nM; in the test on hIL-6 mRNA, 300 to 3000 nM; in test [2], no more than 300 nM.
As to `Cc1nc2c(NC(=O)c3ccccc3)cc(-c3c(C)noc3C)cc2[nH]1` [Example Compound 165, N-(6-(3,5-dimethyl-isoxazol-4-yl)-2-methyl-1H-benzo[d]imidazol-4-yl)benzamide], the IC50 with Human AML MV-4-11 cells was 3000 to 30000 nM; in the test on hIL-6 mRNA, 300 to 3000 nM; in test [2], 300 to 3000 nM.
With `Cc1nc2c(/C=C/c3ccccc3)cc(-c3c(C)noc3C)cc2[nH]1` [Example Compound 158, (E)-3,5-dimethyl-4-(2-methyl-4-styryl-1H-benzo[d]imidazol-6-yl)isoxazole], the IC50 is 300 to 3000 nM in the test with Human AML MV-4-11 cells, 300 to 3000 nM with hIL-6 mRNA and no more than 300 nM in test [2].
Turning to `Cc1noc(C)c1-c1cc(-c2cccc(C#N)c2C)c2nc(NC3CCN(C)CC3)[nH]c2c1` [Example Compound 216, 3-(6-(3,5-dimethyl-isoxazol-4-yl)-2-((1-methyl-piperidin-4-yl)amino)-1H-benzo[d]imidazol-4-yl)-2-methyl benzonitrile], the IC50 in test [1] was 300 to 3000 nM; in the test with hIL-6 mRNA it was no more than 300 nM; in test [2], no more than 300 nM.
In the case of `Cc1nc2c(-c3cccc(S(C)(=O)=O)c3)cc(-c3c(C)noc3C)cc2[nH]1` [Example Compound 154, 3,5-dimethyl-4-(2-methyl-4-(3-(methyl-sulfonyl)phenyl)-1H-benzo[d]imidazol-6-yl)isoxazole], the IC50 in the test with Human AML MV-4-11 cells is 300 to 3000 nM; with hIL-6 mRNA, no more than 300 nM; in test [2], no more than 300 nM.
In the case of `Cc1noc(C)c1-c1cc(-c2cccc(C(N)=O)c2C)c2nc(N3CCOCC3)[nH]c2c1` [Example Compound 208, 3-(6-(3,5-dimethyl-isoxazol-4-yl)-2-morpholino-1H-benzo[d]imidazol-4-yl)-2-methyl benzamide], the IC50 (in the test with hIL-6 mRNA; in test [2]) was no more than 300 nM in each case.
Regarding `Cc1noc(C)c1-c1cc(-c2c(C)noc2C)c2nccn2c1` [Example Compound 8, 4,4′-(imidazo [1,2-a]pyridine-6,8-diyl) bis(3,5-dimethylisoxazole)], in the test on Human AML MV-4-11 cells, the “Cell Proliferation activity” value was “Not active”. The IL-6 activity entry with hIL-6 mRNA is given as “Not active”. Further, the IC50 in test [2] lay within 300 to 3000 nM.
As to `COc1nccc(C)c1-c1cc(-c2c(C)noc2C)cc2[nH]c(C)nc12` [Example Compound 114, 4-(4-(2-methoxy-4-methyl-pyridin-3-yl)-2-methyl-1H-benzo[d]imidazol-6-yl)-3,5-dimethyl isoxazole], the IC50 is no more than 300 nM with hIL-6 mRNA and 300 to 3000 nM in test [2].
As to `Cc1nc2c(Oc3cc(C(=O)O)ccc3C)cc(-c3c(C)noc3C)cc2[nH]1` [Example Compound 175, 3-((6-(3,5-dimethylisoxazol-4-yl)-2-methyl-1H-benzo[d]imidazol-4-yl)oxy)-4-methylbenzoic acid], the “Cell Proliferation activity” value in the test with Human AML MV-4-11 cells is recorded as “Not active”. Further, in the test on hIL-6 mRNA, the IL-6 activity entry is “Not active”. In addition, in test [2], the IC50 was no more than 300 nM.
Turning to `Cc1nc2c(N3C(=O)CCC3C)cc(-c3c(C)noc3C)cc2[nH]1` (centres unmarked) [Example Compound 121, 1-(6-(3,5-dimethylisoxazol-4-yl)-2-methyl-1H-benzo[d]imidazol-4-yl)-5-methylpyrrolidin-2-one], the “Cell Proliferation activity” value in the test with Human AML MV-4-11 cells is on record as “Not active”. Besides, the IC50 (with hIL-6 mRNA; in test [2]) was 300 to 3000 nM throughout.
Turning to `Cc1noc(C)c1-c1cc(-c2cncnc2)c2nc[nH]c2c1` [Example Compound 22, 3,5-dimethyl-4-(4-(pyrimidin-5-yl)-1H-benzo[d]imidazol-6-yi)isoxazole], the “Cell Proliferation activity” value in the test with Human AML MV-4-11 cells is “Not active”. Also, the IC50 (in the test on hIL-6 mRNA; in test [2]) was 300 to 3000 nM throughout.
As to `Cc1noc(C)c1-c1cc(-c2c(C)nn(C)c2C)c2nc(N3CCCC3)[nH]c2c1` [Example Compound 213, 3,5-dimethyl-4-(2-(pyrrolidin-1-yl)-4-(1,3,5-trimethyl-1H-pyrazol-4-yl)-1H-benzo[d]imidazol-6-yl)isoxazole], the IC50 (with hIL-6 mRNA; in test [2]) was no more than 300 nM each time.
`Cc1ccc(C#N)cc1-c1cc(-c2c(C)noc2C)cc2[nH]c(NCc3cccnc3)nc12` [Example Compound 211, 3-(6-(3,5-dimethyl-isoxazol-4-yl)-2-((pyridin-3-ylmethyl)amino)-1H-benzo[d]imidazol-4-yl)-4-methyl-benzonitrile]: the values for the IC50 (in the test on hIL-6 mRNA; in test [2]) were 300 to 3000 nM and no more than 300 nM, respectively.
For `Cc1noc(C)c1-c1cc(-c2c(C)nn(C)c2C)c2nc(NCc3ccccc3)[nH]c2c1` [Example Compound 212, N-benzyl-6-(3,5-dimethyl-isoxazol-4-yl)-4-(1,3,5-trimethyl-1H-pyrazol-4-yl)-1H-benzo[d] imidazol-2-amine] the same measures were no more than 300 nM and no more than 300 nM.
With `Cc1noc(C)c1-c1cc(Nc2ncccn2)c2nc[nH]c2c1` [Example Compound 43, 6-(3,5-dimethyl-isoxazol-4-yl)-N-(pyrimidin-2-yl)-1H-benzo[d] imidazol-4-amine], the IC50 is 3000 to 30000 nM with Human AML MV-4-11 cells, 300 to 3000 nM with hIL-6 mRNA and no more than 300 nM in test [2].
In the case of `Cc1nc2c(-c3cncc(F)c3C)cc(-c3c(C)noc3C)cc2[nH]1` [Example Compound 125, 4-(4-(5-fluoro-4-methyl-pyridin-3-yl)-2-methyl-1H-benzo[d]imidazol-6-yl)-3,5-dimethyl isoxazole], the figures for the IC50 (in test [1]; in the test on Human AML MV-4-11 cells; in test [2]) were 300 to 3000 nM, 300 to 3000 nM and no more than 300 nM, respectively.
As for `Cc1noc(C)c1-c1cc(-c2c(C)nn(C)c2C)c2nc(NC3CCN(C)CC3)[nH]c2c1` [Example Compound 185, 6-(3,5-dimethyl-isoxazol-4-yl)-N-(1-methyl-piperidin-4-yl)-4-(1,3,5-trimethyl-1H-pyrazol-4-yl)-1H-benzo[d] imidazol-2-amine], the IC50 was 300 to 3000 nM in test [1], 300 to 3000 nM in the test on Human AML MV-4-11 cells and no more than 300 nM in test [2].
